From patent publication US20150025080A1, “SOLID DISPERSIONS OF SITAGLIPTIN AND PROCESSES FOR THEIR PREPARATION” (RANBAXY LABORATORIES LIMITED, priority 2011, published 2015) come the findings set out here.

A short description of the series: Storage stability in humidity chamber at 50% RH and 25° C., evaluated by XRPD. The note with it: about 50% relative humidity. The series is classed as physicochemical. As for the experimental part:
The X-ray powder diffractograms (XRPD) of the samples were determined by using Instrument: PANalytical; Mode: Expert PRO; Detector: Xcelerator; ScanRange: 3-40; Step size: 0.02; Range: 3-40° 2 theta; CuKα radiation at 45 kV.
0.52 g of the product obtained as per Example 2 was stored in double sealed polybags in a humidity chamber maintained at 50% RH and 25° C. for 4 days to evaluate the stability. The XRPD pattern of the compound stored at 50% RH and 25° C. for 4 days is depicted in FIG. 10.
0.54 g of the product obtained as per Example 2 was stored in double sealed polybags in a humidity chamber maintained at 50% RH and 25° C. for 10 days to evaluate the stability. The XRPD pattern of the compound stored at 50% RH and 25° C. for 10 days is depicted in FIG. 11.
0.54 g of the product obtained as per Example 5 was stored in double-sealed polybags in a humidity chamber maintained at 50% RH and 25° C. for 4 days to evaluate the stability. The XRPD pattern of the product stored at 50% RH and 25° C. for 4 days is depicted in FIG. 13.
0.53 g of the product obtained as per Example 5 was stored in double-sealed polybags in a humidity chamber maintained at 50% RH and 25° C. for 10 days to evaluate the stability. The XRPD pattern of the product stored at 50% RH and 25° C. for 10 days is depicted in FIG. 14. […]

In the case of `N[C@@H](CC(=O)N1CCn2c(nnc2C(F)(F)F)C1)Cc1cc(F)c(F)cc1F` [sitagliptin dihydrogen phosphate], the “time period in which the amorphous form tends to undergo crystallization” value is “about 4 days”.
